Results reported in patent US20050272720A1 (priority 2004, published 2005).

Assay: Solid-state stability of olanzapine acetate under normal conditions
Type: physicochemical
Source text: The olanzapine acetate in solid state is a particulate material, with no or minimal tendency of reversible absorption of water from the environment, and with good handling properties.

Compound: Cc1cc2c(s1)Nc1ccccc1N=C2N1CCN(C)CC1 [olanzapine acetate]
- stability under normal conditions of temperature and moisture: sufficiently stable
